pIC50: −log10 of the molar value.

The subject of the assay is Hedgehog pathway activation (GLi-luciferase reporter) in Shh Light II reporter cells. The assay can be described thus: Hedgehog pathway activation on Shh Light II reporter cells measured by luciferase activity. In kind it is cell-based. Particulars: Mus musculus, Shh Light II, hShh activation, read-out: Shh (IC50, inhibition of Hedgehog pathway activation). How it is done: Hedgehog conditioned media was obtained by transfecting 293H cells with the full length gene encoding human Sonic Hedgehog (hShh) inserted into the pCMV6 expression vector, which contains a neomycin selectable marker and expresses the protein of interest with a C-terminal FLAG affinity tag. After selection in G418 containing media, conditioned media from Hedgehog expressing clones were tested for the ability to activate the hedgehog-responsive GLi-luciferase reporter in the Shh Light II cell line obtained by license from John Hopkins University (Taipale J, et al. Effects of oncogenic mutations in Smoothened and Patched can be reversed by cyclopamine. Nature 406: 1005-1009, 2000).
A test compound library was screened against hShh and 500 nM SAG (a direct agonist of the Smoothened receptor) activated 10T1/2/Smo#3 cells and Shh Light II reporter cells for the ability to block Hedgehog pathway activation. Concurrently, cell viability was measured by utilizing Celltiter-Blue® (Promega, Madison Wis.) viability assay. Active compounds were defined as those that inhibited Hedgehog signaling by greater than 50% with no concurrent loss in cell viability.
Their inhibitory activity against Hedgehog pathway activation on 10T1/2/Smo#3 cells as measured by ALP activity and Shh Light II reporter cells as measured by luciferase activity is shown in Table 1 below. In Table 1, +++ stands for an IC50 value that is less than 0.3 μM, ++ between 0.3 and 3 μM, + between 3 and 30 μM.
Additional data for compounds of the invention is shown below in Table 2. Their inhibitory activities against Hedgehog pathway activation are shown as IC50 values in μM on 10T1/2/Smo#3 cells as measured by ALP activity, or on Shh Light II reporter cells as measured by luciferase activity (hShh activation).
As for `Cc1ccc(-c2cn3nc(-c4ccc(C(F)(F)F)cn4)ccc3n2)cc1NC(=O)C(C)(C)C` [Example 457, N-(2-methyl-5-(6-(5-(trifluoromethyl)pyridin-2-yl)imidazo[1,2-b]pyridazin-2-yl)phenyl)pivalamide], the pIC50 was 6.48. As for `CC(C)(C)OC(=O)N1CCN(c2ccc3nc(-c4ccc(C(F)(F)F)c(NC(=O)C(C)(C)C)c4)cn3n2)CC1` [Example 327, tert-butyl 4-(2-(3-pivalamido-4-(trifluoromethyl)phenyl)imidazo[1,2-b]pyridazin-6-yl)piperazine-1-carboxylate], the figure is 6.32. Regarding `Cc1ccc(C2CN3N=C(c4cccnc4C(F)(F)F)C=CC3=N2)cc1NC(=O)C(C)(C)CN` (stereo not shown) [compound 622, 3-amino-2,2-dimethyl-N-(2-methyl-5-(6-(2-(trifluoromethyl)pyridin-3-yl)-2,3-dihydroimidazo[1,2-b]pyridazin-2-yl)phenyl)propanamide], the pIC50 is 6.27. `Cc1ccc(-c2cn3nc(-c4cccc(NC(=O)CCCCCCC(=O)NO)n4)ccc3n2)cc1NC(=O)C(C)(C)C` [compound 580, N1-hydroxy-N8-(6-(2-(4-methyl-3-pivalamidophenyl)imidazo[1,2-b]pyridazin-6-yl)pyridin-2-yl)octanediamide]: the pIC50 was 5.88. As to `Cc1ccc(-c2cn3nc(Cl)ccc3n2)cc1NS(=O)(=O)c1cccc(C=CC(=O)NO)c1` [compound 617], the negative-log IC50 (pIC50) was 5.07. Turning to `CC(C)(C)C(=O)Nc1cc(-c2cn3nc(N4CCC(N)C4)ccc3n2)ccc1C(F)(F)F` (stereo not shown) [Example 318, N-(5-(6-(3-aminopyrrolidin-1-yl)imidazo[1,2-b]pyridazin-2-yl)-2-(trifluoromethyl)phenyl)pivalamide], the negative-log IC50 (pIC50) was 6.69. For the compound `Cc1ccc(-c2cn3nc(Cl)ccc3n2)cc1NC(=O)c1cccc(C=CC(=O)NO)c1` [compound 615], the pIC50 was 5.65. Consider `Cc1ccc(-c2nc3ccc(-c4ccc(C(F)(F)F)nc4)nn3c2C)cc1NC(=O)C(C)(C)C` [Example 339, N-(2-methyl-5-(3-methyl-6-(6-(trifluoromethyl)pyridin-3-yl)imidazo[1,2-b]pyridazin-2-yl)phenyl)pivalamide], for which the pIC50 is 6.56. As to `Cc1ccc(-c2cn3nc(-c4cccnc4C(F)(F)F)ccc3n2)cc1-c1nc(C(C)(C)C)cs1` [compound 520], the pIC50 is 6.31. For `CC(C)(C)C(=O)Nc1cc(-c2cn3nc(N4CCC(N)CC4)ccc3n2)ccc1C(F)(F)F` [Example 332, N-(5-(6-(4-aminopiperidin-1-yl)imidazo[1,2-b]pyridazin-2-yl)-2-(trifluoromethyl)phenyl)pivalamide], the pIC50 is 6.16.

Regarding `Cc1ccc(-c2cn3nc(-c4cccnc4C(F)(F)F)ccc3n2)cc1NC(=O)C(C)(C)C#N` [compound 621, 2-cyano-2-methyl-N-(2-methyl-5-(6-(2-(trifluoromethyl)pyridin-3-yl)imidazo[1,2-b]pyridazin-2-yl)phenyl)propanamide], the pIC50 is 7.28. In the case of `Cc1ccc(-c2cn3nc(-c4ccc(O)nc4)ccc3n2)cc1NC(=O)C(C)(C)C` [Example 404, N-(5-(6-(6-hydroxypyridin-3-yl)imidazo[1,2-b]pyridazin-2-yl)-2-methylphenyl)pivalamide], the pIC50 is 6.06.

Take `CCOC(=O)C=Cc1cccc(S(=O)(=O)Nc2cc(-c3cn4nc(Cl)ccc4n3)ccc2C)c1` [compound 607]: the pIC50 was 5.68. As for `CC1CNCCN1c1ccc2nc(-c3ccc(C(F)(F)F)c(NC(=O)C(C)(C)C)c3)cn2n1` (stereo not shown) [Example 329, N-(5-(6-(2-methylpiperazin-1-yl)imidazo[1,2-b]pyridazin-2-yl)-2-(trifluoromethyl)phenyl)pivalamide], the pIC50 is 5.69. As to `CC(=O)c1ccc(-c2ccc3nc(-c4ccc(C)c(NC(=O)C(C)(C)C)c4)cn3n2)cc1` [compound 522], the pIC50 was 5.89. On to `Cc1ccc(-c2cn3nc(-c4ccc(C(N)=O)cn4)ccc3n2)cc1NC(=O)C(C)(C)C` [compound 538, 6-(2-(4-methyl-3-pivalamidophenyl)imidazo[1,2-b]pyridazin-6-yl)nicotinamide], for which the negative logarithm of the IC50 (pIC50) is 6.37.

For `Cc1ccc(-c2cn3nc(-c4ccc(C(F)(F)F)nc4)ccc3n2)cc1NC(=O)C(C)(C)C` [Example 322, N-(2-methyl-5-(6-(6-(trifluoromethyl)pyridin-3-yl)imidazo[1,2-b]pyridazin-2-yl)phenyl)pivalamide], the pIC50 was 6.04. In the case of `Cc1ccc(-c2cn3nc(-c4cc(C=CC(=O)NO)ccc4Cl)ccc3n2)cc1NC(=O)C(C)(C)C` [compound 579], the pIC50 was 6.50. Regarding `Cc1ccc(-c2cn3nc(-c4c(C)nn(C)c4C)ccc3n2)cc1NC(=O)C(C)(C)C` [compound 503], the pIC50 is 6.48.

Consider `CC(C)(C)C(=O)Nc1cc(-c2cn3nc(-c4cccc(S(C)(=O)=O)c4)ccc3n2)ccc1C(F)(F)F` [Example 325, N-(5-(6-(3-(methylsulfonyl)phenyl)imidazo[1,2-b]pyridazin-2-yl)-2-(trifluoromethyl)phenyl)pivalamide], for which the pIC50 is 6.13. In the case of `COC(=O)CCCCCCC(=O)Nc1cc(-c2cn3nc(-c4cccnc4C(F)(F)F)ccc3n2)ccc1C` [Example 420, methyl 8-(2-methyl-5-(6-(2-(trifluoromethyl)pyridin-3-yl)imidazo[1,2-b]pyridazin-2-yl)phenylamino)-8-oxooctanoate], the pIC50 was 5.86. Regarding `Cc1ccc(-c2cn3nc(-c4cncc(C(F)(F)F)c4)ccc3n2)cc1NC(=O)C(C)(C)C` [compound 536, N-(2-methyl-5-(6-(5-(trifluoromethyl)pyridin-3-yl)imidazo[1,2-b]pyridazin-2-yl)phenyl)pivalamide], the pIC50 was 6.43. Take `CCc1ccc(-c2cn3nc(-c4ccc(C(F)(F)F)nc4)ccc3n2)cc1NC(=O)C(C)(C)C` [Example 338, N-(2-ethyl-5-(6-(6-(trifluoromethyl)pyridin-3-yl)imidazo[1,2-b]pyridazin-2-yl)phenyl)pivalamide]: the pIC50 is 6.40. As for `Cc1ccc(-c2cn3nc(-c4ccc(C(=N)NN)cc4C(F)(F)F)ccc3n2)cc1NC(=O)C(C)(C)C` [compound 586], the figure is 7.06; as for `CCOC(=O)CCCOc1ccc(C(F)(F)F)c(-c2ccc3nc(-c4ccc(C)c(NC(=O)C(C)(C)C)c4)cn3n2)c1` [Example 434, ethyl 4-(3-(2-(4-methyl-3-pivalamidophenyl)imidazo[1,2-b]pyridazin-6-yl)-4-(trifluoromethyl)phenoxy)butanoate], 6.45. Under `Cc1ccc(-c2cn3nc(-c4cccc(C(F)(F)F)n4)ccc3n2)cc1NC(=O)C(C)(C)C` [Example 458, N-(2-methyl-5-(6-(6-(trifluoromethyl)pyridin-2-yl)imidazo[1,2-b]pyridazin-2-yl)phenyl)pivalamide] stands 6.38; under `Cc1ccc(-c2cn3nc(-c4cccnc4C(F)(F)F)ccc3n2)cc1C(=O)O` [Example 481, 2-methyl-5-(6-(2-(trifluoromethyl)pyridin-3-yl)imidazo[1,2-b]pyridazin-2-yl)benzoic acid], below 5.00; under `Cc1ccc(-c2cn3nc(-c4ccc(C#N)cc4C)ccc3n2)cc1NC(=O)C(C)(C)C` [compound 574], 6.44. As to `Cc1ccc(-c2cn3nc(-c4cccnc4C(F)(F)F)ccc3n2)cc1NS(=O)(=O)c1cccc(C=CC(=O)Nc2ccccc2N)c1` [compound 624, N-(2-aminophenyl)-3-(3-(N-(2-methyl-5-(6-(2-(trifluoromethyl)pyridin-3-yl)imidazo[1,2-b]pyridazin-2-yl)phenyl)sulfamoyl)phenyl)acrylamide], the pIC50 is 6.08. As for `CN1CCN(c2ccc3nc(-c4ccc(C(F)(F)F)c(NC(=O)C(C)(C)C)c4)cn3n2)CC1` [Example 316, N-(5-(6-(4-methylpiperazin-1-yl)imidazo[1,2-b]pyridazin-2-yl)-2-(trifluoromethyl)phenyl)pivalamide], the figure is 6.03. Turning to `CC(C)(C)C(=O)Nc1cc(-c2cn3nc(-c4ccccc4N)ccc3n2)ccc1C(F)(F)F` [Example 345, N-(5-(6-(2-aminophenyl)imidazo[1,2-b]pyridazin-2-yl)-2-(trifluoromethyl)phenyl)pivalamide], the pIC50 was 5.26.

With `Cc1ccc(-c2cn3nc(-c4cccnc4C(F)(F)F)ccc3n2)cc1C(N)=O` [Example 482, 2-methyl-5-(6-(2-(trifluoromethyl)pyridin-3-yl)imidazo[1,2-b]pyridazin-2-yl)benzamide], the pIC50 was below 5.00. Under `CCOC(=O)CCCCCCNC1CCN(c2ccc3nc(-c4ccc(C)c(NC(=O)C(C)(C)C)c4)cn3n2)C1` (stereo not shown) [Example 415, ethyl 7-(1-(2-(4-methyl-3-pivalamidophenyl)imidazo[1,2-b]pyridazin-6-yl)pyrrolidin-3-ylamino)heptanoate] stands 5.76; under `CCOC(=O)COc1cc(-c2ccc3nc(-c4ccc(C)c(NC(=O)C(C)(C)C)c4)cn3n2)cc(C(F)(F)F)n1` [Example 475, ethyl 2-(4-(2-(4-methyl-3-pivalamidophenyl)imidazo[1,2-b]pyridazin-6-yl)-6-(trifluoromethyl)pyridin-2-yloxy)acetate], 5.58.

The values above are taken from patent US8871767B2, “2-arylimidazo[1,2-B]pyridazine, 2-phenylimidazo[1,2-A]pyridine, and 2-phenylimidazo[1,2-A]pyrazine derivatives” (Hengrui (USA) Ltd., priority 2010, dated 2014).
